Data published in ChEMBL document CHEMBL1148961, “10-membered macrolides from the insect pathogenic fungus Cordyceps militaris BCC 2816” (J Nat Prod, 2004).
Converted amounts (≈) assume the structure as drawn. The source made the active and inactive calls. No cut-off for these calls is given here.

Assays:
Plasmodium falciparum [1] = experiment: Antimalarial activity against multidrug-resistant Plasmodium falciparum K1 at <20 ug/mL after 24 hrs by [3H]hypoxanthine uptake; format: functional, organism-based
Plasmodium falciparum [2] = experiment: Antimalarial activity against multidrug-resistant Plasmodium falciparum K1 after 24 hrs by [3H]hypoxanthine uptake; format: functional, organism-based

Structure (SMILES) | Activity (Plasmodium falciparum [1]) | IC50 (Plasmodium falciparum [2]) [µg/mL]
C[C@@H]1CC[C@@H](O)/C=C/[C@@H](O)CC(=O)O1 | inactive | 
CO[C@H]1CC(=O)CC[C@@H](C)OC(=O)C[C@@H]1O | inactive | 
CO[C@@H]1CC(=O)CC[C@@H](C)OC(=O)C[C@@H]1O | inactive | 
Nc1ncnc2c1ncn2[C@@H]1O[C@H](CO)C[C@H]1O [CORDYCEPIN] |  | 4.5 (≈ 17.9 µM)
C[C@H]1[C@@H](O)O[C@@H]2O[C@@]3(C)CC[C@H]4[C@H](C)CC[C@@H]1[C@@]24OO3 [ARTENIMOL] |  | 0.0012 (≈ 0.00422 µM)
C[C@@H]1CCC(=O)C[C@H](O)[C@@H](O)CC(=O)O1 | inactive | 
